This note sets out measurements from US20240383910A1, “SMALL MOLECULE BTK DEGRADERS AND METHODS OF USE THEREOF” (Baylor College of Medicine, priority 2023, published 2024).

Format in all cases: cell-based
Experiment [1] deals with T1, BTK-Hibit (Homo sapiens, UniProt Q06187+Q96SW2).
T1 construct: endogenous in cells; host or cells: Ramos (BTK-Hibit knock-in)
Kind of experiment: BTK degradation in BTK-Hibit knock-in Ramos cells. The settings on record: 24 hours. The protocol:
(§1) Ramos cells were treated with the indicated compounds at the indicated concentrations for 24 hours. Nurix and DD-03-171 were used as the controls.
(§2) To further illustrate the BTK degradation ability of PS-2, BTK-Hibit knock-in Ramos cells were treated with PS-2 for 24 hours, using Nurix and DD-03171 as controls (FIG. 6).

Experiment [2] concerns the target T2, BTK-Hibit (Homo sapiens, UniProt Q06187).
T2 construct: endogenous in cells; host or cells: Ramos (BTK-Hibit knock-in)
Kind of experiment: BTK degradation in BTK-Hibit knock-in Ramos cells. The settings on record: 24 hours. The protocol: as §1, §2

The next experiment has as its target T3, CSK (Homo sapiens, UniProt P41240).
T3 construct: host or cells: Mino
Kind of experiment: TMT-based quantitative proteomics in Mino cells, CSK. The settings on record: 200 nM, 4 h. The protocol: (§3) Panel a. […] Panel b. […] Panel c. […] Panel d-e. […] Panel g.
(§4) Two million of Mino cells were treated with DMSO or 200 nM of PS-2 for 4 hours in biological triplicates and cells were harvested by centrifugation (200×g, 4° C., 5 min). Lysis buffer (100 mM Triethylammonium bicarbonate (TEAB, Thermo Fisher Scientific, Cat. No. 90114), 2% SDS) was added to the cell pellets and homogenized with a microtip sonicator (Branson) to achieve a cell lysate with a protein concentration of ˜2 mg mL^−1. Protein concentration was determined using BCA assay (Pierce, Cat. No. 23225) and normalized to 1 mg mL^−1. One hundred μg of protein for each sample were reduced and alkylated with 10 mM Tris(2-carboxyethyl) phosphine hydrochloride (TCEP, Sigma, Cat. No. C4706) and 17 mM iodoacetamide (IAA, Sigma, Cat. No. 16125-5G), followed by digestion with trypsin (1:20, enzyme: protein, Thermo Fisher Scientific, Cat. No. 90058) for 16 h shaking at 37° C. […]
(§5) Next, tandem mass tagging (TMT)-based quantitative proteomic profiling was performed to evaluate the degradation specificity of PS-2. […] Quantitative proteomics employing TMT chemical labeling coupled with LC/MS/MS enabled the detection of >2,500 unique proteins without fractionation (FIG. 4f). […]

Another experiment has as its target T4, IKZF1 (Homo sapiens, UniProt Q13422+Q96SW2).
T4 construct: host or cells: Mino
Put plainly: Western blotting for IKZF1 in Mino cells. The settings on record: 24 h, Western blot, read-out: IKZF1-WB Endpoint DC50. The method, then: as §3
After treatment, whole cell lysates for immunoblotting were prepared by pelleting Mino cells at 4° C. and 200×g for 5 minutes. […] Imaging was performed using the ECL Prime chemiluminescent Western blot detection reagents (Kindle Biosciences, Cat. No. R1100) by visualization of the blots with an Imager (Kindle Biosciences, Cat. No. D1001). All Western blots were subsequently processed and quantified with Imager software ImageJ and protein level was normalized to the B-actin loading controls.

The target of experiment [3] is T5, BTK (Homo sapiens, UniProt Q06187). Put plainly: Western blotting for BTK in Mino cells. As to conditions: up to 1000 nM, 24 h, Western blot. Set-up: host or cells: Mino. A digest of the protocol:
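Mino cells were given serial 5-fold dilutions of compound (1,000-1.6 nM) for 24 h, then lysed. Immunoblots of 30 μg protein probed BTK, with band intensity normalized to β-actin. […]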

The target in experiment [4] is T5, BTK. Put plainly: TMT-based quantitative proteomics in Mino cells, BTK. On the set-up: host or cells: Mino. The settings on record: 200 nM, 4 h. The method, then:
as §3, §4, §5

Experiment [5] addresses T5, BTK. Kind of experiment: BTK ligand competition assay in Ramos cells (Western blotting for BTK). As to conditions: 100 nM, 24 hours, Western blot. Set-up: host or cells: Ramos. (In general: Immunoblotting shows a protein as a band on a membrane.)
Procedure: Ramos cells were incubated overnight, and then the indicated compounds were added and incubated for 24 hours, followed by Western blotting for BTK degradation.
Ramos cells were incubated overnight, and then the indicated compounds were added and incubated for 24 hours, followed by Western blotting for BTK degradation (FIG. 7).

T5 sequence (Q06187 whole entry): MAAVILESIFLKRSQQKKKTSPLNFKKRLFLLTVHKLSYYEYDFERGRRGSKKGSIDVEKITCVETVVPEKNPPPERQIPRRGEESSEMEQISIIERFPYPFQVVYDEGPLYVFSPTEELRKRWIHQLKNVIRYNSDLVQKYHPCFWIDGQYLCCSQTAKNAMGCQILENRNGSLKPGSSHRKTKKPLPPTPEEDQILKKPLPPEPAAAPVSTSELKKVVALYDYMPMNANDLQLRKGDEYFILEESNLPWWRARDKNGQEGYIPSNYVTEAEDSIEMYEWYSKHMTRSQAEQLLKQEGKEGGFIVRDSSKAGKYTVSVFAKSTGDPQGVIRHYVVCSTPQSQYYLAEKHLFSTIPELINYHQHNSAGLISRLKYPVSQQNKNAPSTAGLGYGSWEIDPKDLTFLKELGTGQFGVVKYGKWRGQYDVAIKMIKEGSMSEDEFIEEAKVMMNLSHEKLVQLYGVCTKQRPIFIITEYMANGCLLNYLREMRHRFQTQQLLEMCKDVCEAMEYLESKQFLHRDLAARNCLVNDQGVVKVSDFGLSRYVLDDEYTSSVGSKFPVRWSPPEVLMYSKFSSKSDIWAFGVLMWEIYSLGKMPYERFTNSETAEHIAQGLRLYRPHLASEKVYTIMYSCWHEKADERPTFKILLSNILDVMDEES
T1 sequence (Q06187 2-659 limits assumed): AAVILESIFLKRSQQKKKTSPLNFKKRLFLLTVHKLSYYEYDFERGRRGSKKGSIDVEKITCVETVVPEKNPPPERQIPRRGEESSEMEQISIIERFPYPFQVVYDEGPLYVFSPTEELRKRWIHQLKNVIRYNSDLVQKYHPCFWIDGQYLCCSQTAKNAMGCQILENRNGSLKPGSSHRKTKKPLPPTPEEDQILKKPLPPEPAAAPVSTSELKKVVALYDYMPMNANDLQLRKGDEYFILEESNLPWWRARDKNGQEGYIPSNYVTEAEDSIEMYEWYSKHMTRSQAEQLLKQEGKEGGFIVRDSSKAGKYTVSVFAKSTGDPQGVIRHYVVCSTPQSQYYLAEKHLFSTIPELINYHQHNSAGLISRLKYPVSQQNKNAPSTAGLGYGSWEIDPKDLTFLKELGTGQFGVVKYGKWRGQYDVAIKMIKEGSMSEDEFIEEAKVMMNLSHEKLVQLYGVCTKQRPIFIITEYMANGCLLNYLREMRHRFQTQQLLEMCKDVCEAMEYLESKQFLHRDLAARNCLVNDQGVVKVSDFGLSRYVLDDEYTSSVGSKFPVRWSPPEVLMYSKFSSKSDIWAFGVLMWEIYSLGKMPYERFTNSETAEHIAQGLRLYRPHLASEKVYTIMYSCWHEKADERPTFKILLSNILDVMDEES
T1 sequence (Q96SW2 whole entry): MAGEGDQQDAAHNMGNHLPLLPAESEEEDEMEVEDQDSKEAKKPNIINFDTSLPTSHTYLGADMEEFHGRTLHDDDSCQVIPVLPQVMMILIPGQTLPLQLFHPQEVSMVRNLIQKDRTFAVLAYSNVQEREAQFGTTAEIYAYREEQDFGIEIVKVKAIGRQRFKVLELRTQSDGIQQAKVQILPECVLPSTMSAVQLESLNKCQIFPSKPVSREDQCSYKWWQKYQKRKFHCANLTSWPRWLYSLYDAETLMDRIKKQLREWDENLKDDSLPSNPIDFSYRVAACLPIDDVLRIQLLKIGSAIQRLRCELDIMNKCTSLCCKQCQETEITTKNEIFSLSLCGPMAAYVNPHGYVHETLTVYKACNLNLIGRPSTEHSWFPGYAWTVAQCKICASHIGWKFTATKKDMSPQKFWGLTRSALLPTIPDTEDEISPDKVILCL
T1 sequence (Q16531 whole entry partner): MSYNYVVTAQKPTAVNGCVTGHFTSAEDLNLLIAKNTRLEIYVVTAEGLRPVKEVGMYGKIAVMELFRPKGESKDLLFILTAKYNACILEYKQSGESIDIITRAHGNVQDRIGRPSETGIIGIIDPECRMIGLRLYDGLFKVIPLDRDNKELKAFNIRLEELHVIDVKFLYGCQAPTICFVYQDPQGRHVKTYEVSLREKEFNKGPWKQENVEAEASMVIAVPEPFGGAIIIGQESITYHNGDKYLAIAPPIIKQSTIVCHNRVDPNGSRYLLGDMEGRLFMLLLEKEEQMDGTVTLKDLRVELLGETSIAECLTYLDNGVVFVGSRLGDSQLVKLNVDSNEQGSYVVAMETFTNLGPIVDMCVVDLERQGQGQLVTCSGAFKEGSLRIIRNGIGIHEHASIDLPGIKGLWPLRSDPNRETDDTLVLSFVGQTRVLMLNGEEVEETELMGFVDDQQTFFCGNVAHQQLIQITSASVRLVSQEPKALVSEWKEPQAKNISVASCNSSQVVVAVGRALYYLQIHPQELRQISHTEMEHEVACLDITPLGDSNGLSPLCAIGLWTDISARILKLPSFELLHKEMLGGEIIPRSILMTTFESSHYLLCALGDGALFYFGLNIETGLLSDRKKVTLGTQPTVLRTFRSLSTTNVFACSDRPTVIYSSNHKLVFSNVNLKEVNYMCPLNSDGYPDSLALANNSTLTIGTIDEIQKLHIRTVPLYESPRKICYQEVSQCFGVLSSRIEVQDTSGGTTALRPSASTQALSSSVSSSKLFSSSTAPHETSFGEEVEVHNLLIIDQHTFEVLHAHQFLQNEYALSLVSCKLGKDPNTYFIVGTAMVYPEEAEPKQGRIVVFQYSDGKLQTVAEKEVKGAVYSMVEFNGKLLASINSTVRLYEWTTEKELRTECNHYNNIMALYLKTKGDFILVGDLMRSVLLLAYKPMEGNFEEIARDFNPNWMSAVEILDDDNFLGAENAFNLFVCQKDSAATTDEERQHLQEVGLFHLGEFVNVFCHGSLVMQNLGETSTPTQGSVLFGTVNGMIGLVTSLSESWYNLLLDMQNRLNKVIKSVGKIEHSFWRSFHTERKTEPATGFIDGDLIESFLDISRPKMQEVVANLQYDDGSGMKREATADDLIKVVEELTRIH
T2 sequence (Q06187 2-659 limits assumed): as the sequence (Q06187 2-659 limits assumed) above
T2 sequence (Q96SW2 whole entry, further chain): as the sequence (Q96SW2 whole entry) above
T2 sequence (Q16531 whole entry partner): as the sequence (Q16531 whole entry partner) above
T3 sequence (P41240 whole entry): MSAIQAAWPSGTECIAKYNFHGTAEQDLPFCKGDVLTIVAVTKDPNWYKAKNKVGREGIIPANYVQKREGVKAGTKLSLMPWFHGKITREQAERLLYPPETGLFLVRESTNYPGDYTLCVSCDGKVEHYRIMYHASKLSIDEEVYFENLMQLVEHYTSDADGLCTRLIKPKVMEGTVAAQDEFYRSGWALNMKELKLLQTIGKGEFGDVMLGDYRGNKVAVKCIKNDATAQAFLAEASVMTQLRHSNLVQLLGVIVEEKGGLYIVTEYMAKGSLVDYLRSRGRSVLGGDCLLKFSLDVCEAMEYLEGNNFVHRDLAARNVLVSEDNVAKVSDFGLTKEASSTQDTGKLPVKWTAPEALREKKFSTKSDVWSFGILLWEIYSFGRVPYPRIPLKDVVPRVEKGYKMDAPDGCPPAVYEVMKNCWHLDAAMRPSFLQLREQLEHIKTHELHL
T4 sequence (Q13422 whole entry): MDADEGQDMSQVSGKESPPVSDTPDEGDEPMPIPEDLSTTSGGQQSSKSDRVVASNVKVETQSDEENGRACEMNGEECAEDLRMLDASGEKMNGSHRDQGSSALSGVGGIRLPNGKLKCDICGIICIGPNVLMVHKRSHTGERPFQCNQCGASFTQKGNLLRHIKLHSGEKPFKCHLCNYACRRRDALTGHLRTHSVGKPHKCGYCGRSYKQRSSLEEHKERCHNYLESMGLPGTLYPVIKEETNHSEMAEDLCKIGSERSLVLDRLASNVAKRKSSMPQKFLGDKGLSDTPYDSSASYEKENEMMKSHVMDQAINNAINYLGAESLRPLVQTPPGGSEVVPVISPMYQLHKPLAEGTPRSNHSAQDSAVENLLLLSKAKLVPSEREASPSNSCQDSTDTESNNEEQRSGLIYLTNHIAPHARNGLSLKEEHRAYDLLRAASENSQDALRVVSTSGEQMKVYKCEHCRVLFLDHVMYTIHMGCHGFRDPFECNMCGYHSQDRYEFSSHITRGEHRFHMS
T4 sequence (Q96SW2 whole entry): as the sequence (Q96SW2 whole entry) above
T4 sequence (Q16531 whole entry partner): as the sequence (Q16531 whole entry partner) above

Consider `O=C1CCC(N2C(=O)c3cccc(NCC(=O)N4CCN(c5ccc(Nc6nccc(Oc7ccccc7)n6)cc5)CC4)c3C2=O)C(=O)N1` (stereo not shown) [PS-2, 2-(2,6-Dioxopiperidin-3-yl)-4-((2-oxo-2-(4-(4-((4-phenoxypyrimidin-2-yl)amino)phenyl)piperazin-1-yl)ethyl)amino)isoindoline-1,3-dione], for which, at BTK-Hibit [1], the Dmax is 84.7%. For the same molecule, the DC50 on BTK-Hibit [2] stood at 3.75 nM; on IKZF1, 28 nM. On CSK, the “CSK protein level change” value is “downregulated”. Further, the “BTK degradation (result in words)” value on BTK [3] is “potently induces BTK degradation”. For the same molecule, the “BTK protein level change” value at BTK [4] was “downregulated”. Also, the “BTK degradation at 100 nM” value on BTK [5] is “Most BTK protein was degraded”.

As a reminder, the Dmax is the largest share of the target that was removed. Read a low Dmax as a partial loss of target.
